Results on 5 compounds are retold here after patent US20160199407A1, “HALIDES IN THE TREATMENT OF PATHOGENIC INFECTION” (THE UNIVERSITY OF IOWA RESEARCH FOUNDATION, priority 2008, published 2016).

The subject of one series is eukaryotic cells. As to conditions: HOI: at bactericidal concentrations; cited from earlier work.
The next series deals with adenovirus (serotype 5). Kind of series: In vitro (cell free) inactivation of adenovirus expressing eGFP. As to conditions: 5 min exposure, readout 24 hr later.
The subject of series [1] is adenovirus expressing eGFP. In words: In situ inactivation of adenovirus on AEC. The conditions noted are these: porcine airway epithelia, 50 MOI, ATP (100 μM), 6.5 mg/mL LPO, NaI, PBS pH 6.5.
The test system of series [2] is influenza A (H1N1, A/PR/8/34). The class given is cell-based. As to conditions: pH 6.5.
The next series relates to A2 strain of RSV. Kind of series: Cell free exposure of RSV to Duox/LPO system components, then titering. As to conditions: 5 min.
The test system of another series is SARS-CoV (Urbani strain). The class given is cell-based. As to conditions: human airway epithelia, 5 MOI, ATP (100 μM), 6.5 mg/mL LPO, NaI, pH 6.5, 24 hr.
Another series relates to H. influenzae. In words: H. influenzae (NTHi) killing on airway epithelial cell cultures with LPO and I^− or SCN^−. The format is cell-based.
The test system of another series is S. aureus. In words: S. aureus killing on airway epithelial cell cultures with LPO and I^− or SCN^−. The class given is cell-based.
Another series relates to primary airway epithelia. As to conditions: cited from earlier work.
Another series relates to M. haemolytica. Kind of series: M. haemolytica killing by AEC cultures. The format is cell-based.
A further series deals with human AEC. Kind of series: HOI generation by AEC, fluorescein absorbance at 508 nm. The format is cell-based. The conditions noted are these: apical ATP (100 μM), I^− (400 μM), LPO (9 μg/ml), fluorescein (16 μM), 3 hours.
The nature of series [3]: I^− accumulation in airway surface fluid after oral KI intake.

Entries after “also recorded” stand apart in the source; their conditions may differ. Read-outs that look alike come from different tables or passages of the source.

`OI` [HOI]: in the series with eukaryotic cells, the “Toxicity to eukaryotic cells” value is recorded as “not toxic”. Besides, the “Adenovirus inactivation (eGFP expression in transduced A549 cells)” value in the series on adenovirus (serotype 5) was “inactivated; also recorded: dose-dependent decrease”. In addition, in series [1], the “Adenovirus inactivation on airway epithelia (GFP expression)” value is “sufficient H2O2 to support; also recorded: dose dependent decrease”. The “Influenza viral antigen (NS1)” value in series [2] was “dose dependent decrease”. In addition, in the series with A2 strain of RSV, the “Solution pH at which antiviral effect against RSV was most marked” value was not above 6.5. Moreover, in the series with A2 strain of RSV (PBS), the “Drop in RSV titer” value was determined as 5 log. In addition, in the series on SARS-CoV (Urbani strain), the “SARS-CoV inactivation (N gene product immunoreactivity)” value is “sufficient H2O2 to support; also recorded: marked reduction”. For the same compound, the “Bactericidal activity against H. influenzae” value in the series on H. influenzae (airway epithelia, LPO) was “strong bactericidal activity”. Also, in the series with S. aureus (airway epithelia, LPO), the “Efficiency of HOI producing system against S. aureus versus OSCN^− producing mechanism” value is “more efficient”.
For `N#CSO` [OSCN^−, hypothiocyanite, reference compound], the “Toxicity to eukaryotic cells” value in the series with eukaryotic cells is recorded as “not toxic”. Besides, the “Influenza viral antigen (NS1)” value in series [2] is “dose dependent decrease”. Also, the “Virucidal effects on RSV” value with A2 strain of RSV (PBS) is “minimal virucidal effects”. Moreover, the “Susceptibility of NTHi” value in the series on H. influenzae (AEC cultures, data not shown) is “resistant”. The “Bactericidal activity against H. influenzae” value in the series with H. influenzae (airway epithelia, LPO) is recorded as “ineffective”.
In the case of `N#CS` [SCN^−, thiocyanate, reference compound], in the series on H. influenzae (LPO, epithelial cells, 3 hrs, 500 μM SCN^− controls), the “SCN− in place of I^− in the oxidative mechanism eliminating H. influenzae” value is recorded as “cannot replace I^−”. Besides, the “Rate of apical-to-basolateral leakage” value with primary airway epithelia (Moskwa, 2007) is less than 10 %/hour. Also, the “Basolateral concentration above which primary airway epithelia secrete the anion” value in the series with primary airway epithelia (published data) was more than 5 µM. Moreover, the “SCN^− concentration necessary for killing of S. aureus” value with S. aureus (AEC cultures, data not shown) is more than 120 µM. The “Susceptibility of M. haemolytica to supported antibacterial activity” value in the series with M. haemolytica is reported as “susceptible”. For the same compound, in the series with M. haemolytica (250 μM SCN^−, 3 hours), the “Killing of M. haemolytica” value is recorded as “supported killing”.
For `I` [I^−, iodide], the “HOI production by AEC” value in the series with human AEC was “can support HOI production”. Moreover, the “Bacterial survival (H. influenzae)” value with H. influenzae (200 and 500 μM I−, LPO (7 μg/ml), epithelial cells, 1000 CFU, 3 hrs) is reported as “No surviving bacteria”. Besides, the “I^− concentration sufficient to support strong NTHi-killing activity of AEC” value in the series on H. influenzae (LPO present, catalase absent, data not shown) was not above 50 µM. For the same compound, in the series with H. influenzae (LPO, airway epithelia, 3 hr), the “I^− concentration at which numbers of surviving H. influenzae were lower” value is not below 10 µM and the “I^− concentration giving complete eradication of bacteria (H. influenzae)” value lay within 50 to 200 µM. Moreover, the “Basolateral concentration above which primary airway epithelia secrete the anion” value in the series on primary airway epithelia is recorded as “higher than 1 μM”. Besides, in the series on S. aureus (50 and 200 μM I^−, LPO (7 μg/ml), epithelial cells, 1000 CFU, 3 hrs), the “Bacterial survival (S. aureus)” value is given as “No surviving bacteria”. Further, the “I^− concentration supporting complete elimination of S. aureus” value in the series on S. aureus (AEC cultures, data not shown) is 50 µM. In addition, in the series with S. aureus (LPO, airway epithelia, 3 hr), the “I^− concentration at which numbers of surviving S. aureus were lower” value was not below 10 µM and the “I^− concentration giving complete eradication of bacteria (S. aureus)” value fell in the range of 50 to 200 µM. Besides, in the series on M. haemolytica, the “Elimination of M. haemolytica in the presence of I^− as compared to SCN^−” value is on record as “more effective” and the “Susceptibility of M. haemolytica to supported antibacterial activity” value is “susceptible”. In addition, the “Bacterial survival (M. haemolytica)” value in the series with M. haemolytica (LPO and 250 μM I^−, 3 hours) was “No surviving bacteria”.
For `[I-].[K+]` [KI, potassium iodide], the “Airway surface fluid I^− concentration relative to serum I^− level” value in series [3] (8 hours after oral 130 mg KI) is reported as “more than 50 fold”. Further, in [3] (oral 130 mg KI), the “Sufficiency to achieve the airway surface fluid I^− level (10-50 μM) necessary for HOI-mediated elimination of bacteria and viruses” value is “more than sufficient”; the “Time the high airway surface fluid I^− concentration was maintained” value is recorded as “several hours”. Besides, the “I^− concentration in airway surface fluid” value in [3] (two hours after oral KI tablet (130 mg), human subject) is approximately 200 µM.
